The record followed here is EP0295827A2, “Use of 24,25-dihydroxy-cholecalciferol in mending bone fractures” (priority 1987, dated 1988).

A short description of data set [1]: Acute toxicity, single oral administration. As to conditions: mouse, in vivo, ICR male mice, read-out: LD₅₀ value. On the procedure:
24,25-(OH)₂-D₃ in ethanol was dissolved in a triglyceride ester of a middle fatty acid so as to have an ethanol concentration of 2 %. The thus-prepared solution was orally administered to 10 ICR male mice (weight: 25 ± 3g). The dosage of 24,25-(OH)₂-D₃ was 100 mg/kg. […] When they were subjected to the biochemical blood test, anatomical examination and pathological histology after they were killed, there was no difference between the treated mice and a controlled group of mice to which only a triglyceride ester of a middle fatty acid containing 2% ethanol had been administered. Since the LD₅₀ value of the oral administration of 24,25-(OH)₂-D₃ was not less than 100 mg/kg, 24,25-(OH)₂-D₃ can be said to be very safe.

The subject of data set [2] is rabbits suffering fracture. As to the kind of experiment: Fibula fracture model: strength test (bending test). The class given is in vivo, Japanese white house rabbits. The conditions noted are these: 100 µg/kg oral, average value ± standard deviation. From the text:
The right fibulae of mature house rabbits (Japanese white house rabbits having a weight of about 3 kg) were broken at the central portions under anesthetic with a dental hand drill. Each of the house rabbits was kept in a separate cage and was allowed to take an ordinary solid food (CR-1, produced by Nippon Clare Corp.) and city water freely. 24R,25-(OH)₂-D₃ and 24S,25-(OH)₂-D₃ were dispersed in an aqueous 0.5% CMC solution and orally administered to the house rabbits through a rubber catheter. The experimental groups were as follows:
The respective medicines or aqueous 0.5% CMC solution was administered to these house rabbits for 3 weeks or 6 weeks after the bones had been broken. Thereafter, the house rabbits were killed and the fibulae were taken out for X-ray inspection and a strength test (bending test by DDV-VMF produced by Toyo Baldwin Co., Ltd.).

For `C=C1CCC(O)CC1=CC=C1CCCC2(C)C1CCC2C(C)CCC(O)C(C)(C)O` (stereo not drawn) [24,25-(OH)₂-D₃, 24,25-dihydroxycholecalciferol], the LD50 at 336 h in data set [1] is no less than 100 mg/kg.
`C=C1CC[C@H](O)C/C1=C/C=C1\CCC[C@]2(C)[C@@H]([C@H](C)CC[C@H](O)C(C)(C)O)CC[C@@H]12` [24S,25-(OH)₂-D₃]: the figures for the Bending strength in data set [2] (3 weeks after) and in data set [2] (6 weeks after) were 15 N/mm and 81 ± 37 N/mm, respectively.
